# Values of other authors, collected in patent publication US20230354835A1, “USE OF LIQUID SMOKE IN CONJUNCTION WITH FOOD GRADE COATINGS TO CONTROL PEST INFESTATIONS” (Mississippi State University, priority 2022, published 2023).
# Test system: Tyrophagus putrescentiae
# Conditions: Abbar et al., 2016a; coating on ham cubes 2.5×2.5×2.5 cm^3
smiles,measurement,value
"CC(O)CO (stereo not shown) [100% propylene glycol, 1,2-propanediol]",Inhibition of mite growth on dry-cured ham cubes (in words),effective at inhibiting mite growth
